Measurements: publication PMC9919727 (Molecules, 2023)
Where two headings read alike, the source gives them in different places.

Key:
[1] = target: Carbonic anhydrase II (bCA II) (Bos taurus, UniProt P00921); assay: CA II inhibition assay (4-nitrophenyl acetate hydrolysis); format: biochemical, bovine; conditions: for inhibition of the enzyme CA II (in words): under the conditions of the assay
Protocol: For the CA II assay: Carbonic anhydrase II (bCA II, ≥3000 W-A units/mg from bovine erythrocytes) as well as 4-nitrophenyl acetate (4-NA) were purchased from Sigma.
The substrate (25 µL, [4-NA] = 0.75 mM, 0.50 mM, 0.25 mM, 0.15 mM) was added to start the enzymatic reaction. […] The relative inhibition was determined as the quotient of the slopes (compound divided by blank) of the linear ranges.

[2] = tested on: A375 (epithelial melanoma); assay: SRB cytotoxicity assay, A375; format: cell-based; conditions: Homo sapiens, read-out: EC50 A375
Protocol: (§1) Expression of CA II and its involvement cancer has previously been established for A375 [82], HT29 [83] as well as for MCF-7 cells. Cell line A2780 and non-malignant fibroblasts (NIH 3T3) were employed for comparison.
(§2) NMR spectra were recorded using the Varian spectrometers (Darmstadt, Germany) DD2 and VNMRS (400 and 500 MHz, respectively). MS spectra were taken on a Advion expressionL CMS mass spectrometer (Ithaca, USA; positive ion polarity mode, solvent: methanol, solvent flow: 0.2 mL/min, spray voltage: 5.17 kV, source voltage: 77 V, APCI corona discharge: 4.2 μA, capillary temperature: 250 °C, capillary voltage: 180 V, sheath gas: N2). Thin-layer chromatography was performed on pre-coated silica gel plates supplied by Macherey-Nagel (Düren, Germany). IR spectra were recorded on a Spectrum 1000 FT-IR-spectrometer from Perkin Elmer (Rodgau, Germany). The UV/Vis-spectra were recorded on a Lambda 14 spectrometer from Perkin Elmer (Rodgau, Germany); optical rotations were measured using a JASCO-P2000 instrument (JASCO Germany GmbH, Pfungstadt, Germany) The melting points were determined using the Leica hot stage microscope Galen III (Leica Biosystems, Nussloch, Germany) and are uncorrected. The solvents were dried according to usual procedures. Microanalyses were performed with an Elementar Vario EL (CHNS) instrument (Elementar Analysensysteme GmbH, Elementar-Straße 1, D-63505 Langenselbold, Germany). All dry solvents were distilled over respective drying agents except for DMF which was distilled and stored under argon and molecular sieve. Reactions using air- or moisture-sensitive reagents were carried out under argon atmosphere in dried glassware. Triethylamine was stored over potassium hydroxide. Biological assays were performed as previously reported employing cell lines obtained from the Department of Oncology [Martin-Luther-University Halle Wittenberg; they were bought from ATCC: malignant: A 375, HT29, MCF7, and A2780; non-malignant: NIH 3T3]. Oleanolic and ursolic acid were obtained from Betulinines (Strbrna Skalice, Czech Republic) and used as received. Glycyrrhetinic acid was bought from Orgentis Chemicals GmbH (Gatersleben).
For the SRB assay: cells were seeded into 96-well plates on day zero at appropriate cell densities to prevent confluence of the cells during the period of the experiment. […] After 72 h of treatment, the supernatant media from the 96-well plates were discarded, then the cells were fixed with 10% trichloroacetic acid and allowed to rest at 4 °C. After 24 h of fixation, the cells were washed in a strip washer and then dyed with SRB solution (200 μL, 10 mM) for 20 min. […] The absorbance was measured with a 96-well plate reader from Tecan Spectra.

[3] = tested on: NIH 3T3 (non-malignant fibroblasts); assay: SRB cytotoxicity assay, NIH 3T3; format: cell-based; conditions: Mus musculus, read-out: EC50 NIH 3T3
Protocol: as §1, §2
(§3) For the SRB assay: cells were seeded into 96-well plates on day zero at appropriate cell densities to prevent confluence of the cells during the period of the experiment. […] After 72 h of treatment, the supernatant media from the 96-well plates were discarded, then the cells were fixed with 10% trichloroacetic acid and allowed to rest at 4 °C. After 24 h of fixation, the cells were washed in a strip washer and then dyed with SRB solution (200 μL, 10 mM) for 20 min. Then the plates were washed four times with 1% acetic acid to remove the excess of the dye and allowed to air-dry overnight. Tris base solution (200 μL, 10 mM) was added to each well. The absorbance was measured with a 96-well plate reader from Tecan Spectra.

[4] = tested on: HT29 (colorectal adenocarcinoma); assay: SRB cytotoxicity assay, HT29; format: cell-based; conditions: Homo sapiens, read-out: EC50 HT29
Protocol: as §1, §2, §3

[5] = tested on: A2780 (ovarian carcinoma); assay: SRB cytotoxicity assay, A2780; format: cell-based; conditions: Homo sapiens, read-out: EC50 A2780
Protocol: as §1, §2, §3

[6] = tested on: MCF-7 (breast adenocarcinoma); assay: SRB cytotoxicity assay, MCF-7; format: cell-based; conditions: Homo sapiens, read-out: EC50 MCF-7
Protocol: as §1, §2, §3

[7] = A-375, SRB assay, after 72 h of treatment
[8] = at 10 µM concentration, read-out: Inhibition [%]
[9] = NIH3T3, SRB assay, after 72 h of treatment, non-malignant fibroblasts
[10] = HT-29, SRB assay, after 72 h of treatment
[11] = A2780, SRB assay, after 72 h of treatment
[12] = MCF7, SRB assay, after 72 h of treatment

Chain of Carbonic anhydrase II (bCA II) (P00921 whole entry): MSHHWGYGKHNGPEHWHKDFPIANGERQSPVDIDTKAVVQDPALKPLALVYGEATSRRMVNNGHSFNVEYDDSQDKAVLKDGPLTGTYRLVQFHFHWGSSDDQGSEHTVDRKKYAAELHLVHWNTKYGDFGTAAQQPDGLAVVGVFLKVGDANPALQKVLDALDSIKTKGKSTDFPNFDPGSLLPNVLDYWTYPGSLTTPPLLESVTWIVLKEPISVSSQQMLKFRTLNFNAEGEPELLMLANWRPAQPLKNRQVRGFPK

SMILES | melting point | EC50 [3, 9] | EC50 [4, 10] | EC50 [5, 11] | EC50 [6, 12] | inhibition of the enzyme CA II (in words) [1] | also measured
C=C(C)[C@@H]1CC[C@]2(CO)CC[C@]3(C)[C@H](CC[C@@H]4[C@@]5(C)CC[C@H](OC(C)=O)C(C)(C)[C@@H]5CC[C@]43C)[C@@H]12 [Compound 2, 3-O-Acetyl-betulin] | – | – | – | – | – | – | inhibition rates (CA II) ([1]; conditions of the assay): less than 10%
C=C(C)[C@@H]1CC[C@]2(COC(=O)CCC(=O)O)CC[C@]3(C)[C@H](CC[C@@H]4[C@@]5(C)CC[C@H](OC(C)=O)C(C)(C)[C@@H]5CC[C@]43C)[C@@H]12 [Compound 3, 4-{[(3β)-3-(Acetyloxy)lup-20(29)-en-28-yl]oxy}-4-oxobutanoic Acid] | 189 to 191 °C | – | – | – | – | – | inhibition rates (CA II) [1]: less than 10%
C=C(C)[C@@H]1CC[C@]2(COC(=O)CCC(=O)Nc3nnc(S(N)(=O)=O)s3)CC[C@]3(C)[C@H](CC[C@@H]4[C@@]5(C)CC[C@H](OC(C)=O)C(C)(C)[C@@H]5CC[C@]43C)[C@@H]12 [Compound 6, (3β)-3-(Acetyloxy)lup-20(29)-en-28-yl 4-{[5-(aminosulfonyl)-1,3,4-thiadiazol-2-yl]amino}-4-oxobutanoate] | – | – | – | – | – | – | EC50 ([2]; A-375, 72 h): 8.5 ± 0.7 µM; Ki [1]: 0.129 ± 0.02 µM; inhibition at 10 µM [1]: 93 ± 0.1%; mode of inhibition of CA II [1]: competitive inhibitor; EC50 ([3]; NIH3T3, 72 h): 9.5 ± 1 µM; EC50 ([4]; HT-29, 72 h): 10.2 ± 1.3 µM; EC50 ([5]; A2780, 72 h): 9.3 ± 1.2 µM; EC50 ([6]; MCF7, 72 h): 8.9 ± 0.7 µM
CC(=O)O[C@H]1CC[C@]2(C)[C@H]3CC=C4[C@@H]5CC(C)(C)CC[C@]5(COC(=O)CCC(=O)Nc5nnc(S(N)(=O)=O)s5)CC[C@@]4(C)[C@]3(C)CC[C@H]2C1(C)C [Compound 18, (3β) 3-(Acetyloxy)olean-12-en-28-yl-4-{[5-(aminosulfonyl)-1,3,4-thiadiazol-2-yl]amino}-4-oxobutanoate] | 198 to 200 °C | 14 ± 1.5 µM | 14.2 ± 1.4 µM | 11.8 ± 1.4 µM | 10.6 ± 1.4 µM | – | EC50 [2, 7]: 10.1 ± 0.8 µM; inhibition at 10 µM [1, 8]: 49.4 ± 0.1%
CC(=O)O[C@H]1CC[C@]2(C)[C@H]3CC=C4[C@@H]5[C@@H](C)[C@H](C)CC[C@]5(COC(=O)CCC(=O)Nc5nnc(S(N)(=O)=O)s5)CC[C@@]4(C)[C@]3(C)CC[C@H]2C1(C)C [Compound 19, (3β)-3-(Acetyloxy)urs-12-en-28-yl-4-{[5-(aminosulfonyl)-1,3,4-thiadiazol-2-yl]amino}4-oxobutanoate] | 190 to 192 °C | 14.8 ± 1.5 µM | 15 ± 0.6 µM | 12.5 ± 1.7 µM | 12.4 ± 0.8 µM | – | EC50 [2, 7]: 13.7 ± 1.1 µM; Ki ([1]; CA II, Dixon plot, read-out: Ki): 0.91 ± 0.17 µM; inhibition at 10 µM [1, 8]: 70.8 ± 0.2%
CC(=O)O[C@H]1CC[C@]2(C)[C@H]3C(=O)C=C4[C@@H]5C[C@@](C)(COC(=O)CCC(=O)Nc6nnc(S(N)(=O)=O)s6)CC[C@]5(C)CC[C@@]4(C)[C@]3(C)CC[C@H]2C1(C)C [Compound 20, (3β, 20β) 3-(Acetyloxy)-11-oxoolean-12-en-30-yl-4-{[5-(aminosulfonyl)-1,3,4-thiadiazol-2-yl]amino}-4-oxobutanoate] | 179 to 181 °C | 11.9 ± 1.7 µM | 13 ± 1.3 µM | 9.8 ± 0.8 µM | 10.5 ± 1.2 µM | – | EC50 [2, 7]: 9.2 ± 0.5 µM; inhibition at 10 µM [1, 8]: 96.8 ± 0.2%
COc1cccc2c1C(=O)c1c(O)c3c(c(O)c1C2=O)C[C@@](O)(C(=O)CO)C[C@@H]3O[C@H]1C[C@H](N)[C@H](O)[C@H](C)O1 [DX, doxorubicin, reference compound] | – | 0.01 ± 0.001 µM | 0.25 ± 0.02 µM | 0.1 ± 0.01 µM | 0.1 ± 0.01 µM | – | –
C=C(C)[C@@H]1CC[C@]2(CO)CC[C@]3(C)[C@H](CC[C@@H]4[C@@]5(C)CC[C@H](O)C(C)(C)[C@@H]5CC[C@]43C)[C@@H]12 [betulin, reference compound] | – | – | – | – | – | did not inhibit the enzyme | –
C=C(C)[C@@H]1CC[C@]2(C(=O)O)CC[C@]3(C)[C@H](CC[C@@H]4[C@@]5(C)CC[C@H](O)C(C)(C)[C@@H]5CC[C@]43C)[C@@H]12 [betulinic acid, reference compound] | – | – | – | – | – | did not inhibit the enzyme | –
CC1(C)[C@@H](O)CC[C@]2(C)[C@H]3C(=O)C=C4[C@@H]5C[C@@](C)(C(=O)O)CC[C@]5(C)CC[C@@]4(C)[C@]3(C)CC[C@@H]12 [glycyrrhetinic acid, reference compound] | – | – | – | – | – | did not inhibit the enzyme | –
CC1(C)CC[C@]2(C(=O)O)CC[C@]3(C)C(=CC[C@@H]4[C@@]5(C)CC[C@H](O)C(C)(C)[C@@H]5CC[C@]43C)[C@@H]2C1 [oleanolic acid, reference compound] | – | – | – | – | – | did not inhibit the enzyme | –
C[C@H]1[C@H](C)CC[C@]2(C(=O)O)CC[C@]3(C)C(=CC[C@@H]4[C@@]5(C)CC[C@H](O)C(C)(C)[C@@H]5CC[C@]43C)[C@H]12 [ursolic acid, reference compound] | – | – | – | – | – | did not inhibit the enzyme | –
